ChEMBL document CHEMBL1143796, “Synthesis and antimicrobial activity of 1-(4-aryl-2-thiazolyl)-3-(2-thienyl)-5-aryl-2-pyrazoline derivatives” (2007)
Values after ≈ are worked out from the molar mass of the structure shown.

Assays:
Candida albicans = experiment: Antifungal activity against Candida albicans by micro-broth dilution method; assay type: functional
Enterococcus faecalis = experiment: Antibacterial activity against Streptococcus faecalis NRRL B14617 by micro-broth dilution method; assay type: functional
Nakaseomyces glabratus = experiment: Antifungal activity against Candida glabrata by broth dilution antifungal susceptibility testing; assay type: functional
Salmonella typhimurium = experiment: Antibacterial activity against Salmonella Typhimurium NRRL B4420 by microbroth dilution method; assay type: functional, Salmonella enterica subsp. enterica serovar Typhimurium; conditions: Salmonella enterica
Staphylococcus aureus = experiment: Antibacterial activity against Staphylococcus aureus NRRL B767 by micro-broth dilution method; assay type: functional
Bacillus cereus = experiment: Antibacterial activity against Bacillus cereus NRRL B3711 by micro-broth dilution method; assay type: functional
Escherichia coli = experiment: Antibacterial activity against Escherichia coli NRRL B3704 by microbroth dilution method; assay type: functional
Aeromonas hydrophila = experiment: Antibacterial activity against Aeromonas hydrophila by micro-broth dilution method; assay type: functional

Row | MIC (Candida albicans) | MIC (Enterococcus faecalis) | MIC (Nakaseomyces glabratus) | MIC (Salmonella typhimurium) | MIC (Staphylococcus aureus) | MIC (Bacillus cereus) | MIC (Escherichia coli) | MIC (Aeromonas hydrophila) | SMILES
1 | 125 µg/mL (≈ 288 µM) | 250 µg/mL (≈ 577 µM) | 125 µg/mL (≈ 288 µM) | 125 µg/mL (≈ 288 µM) | 125 µg/mL (≈ 288 µM) | 62.5 µg/mL (≈ 144 µM) | 125 µg/mL (≈ 288 µM) | 125 µg/mL (≈ 288 µM) | O=[N+]([O-])c1ccc(-c2csc(N3N=C(c4cccs4)CC3c3ccncc3)n2)cc1 (stereo not given)
2 | 62.5 µg/mL (≈ 144 µM) | 125 µg/mL (≈ 288 µM) | 62.5 µg/mL (≈ 144 µM) | 125 µg/mL (≈ 288 µM) | 31.2 µg/mL (≈ 72.1 µM) | 125 µg/mL (≈ 288 µM) | 250 µg/mL (≈ 577 µM) | 31.2 µg/mL (≈ 72.1 µM) | O=[N+]([O-])c1ccc(-c2csc(N3N=C(c4cccs4)CC3c3cccnc3)n2)cc1 (stereo not given)
3 | 125 µg/mL (≈ 311 µM) | 250 µg/mL (≈ 621 µM) | 125 µg/mL (≈ 311 µM) | 125 µg/mL (≈ 311 µM) | 125 µg/mL (≈ 311 µM) | 62.5 µg/mL (≈ 155 µM) | 250 µg/mL (≈ 621 µM) | 125 µg/mL (≈ 311 µM) | Cc1ccc(-c2csc(N3N=C(c4cccs4)CC3c3ccncc3)n2)cc1 (stereo not given)
4 | 62.5 µg/mL (≈ 161 µM) | 250 µg/mL (≈ 643 µM) | 62.5 µg/mL (≈ 161 µM) | 125 µg/mL (≈ 322 µM) | 250 µg/mL (≈ 643 µM) | 250 µg/mL (≈ 643 µM) | 125 µg/mL (≈ 322 µM) | 62.5 µg/mL (≈ 161 µM) | c1ccc(-c2csc(N3N=C(c4cccs4)CC3c3ccccn3)n2)cc1 (stereo not given)
5 | 250 µg/mL (≈ 643 µM) | 31.2 µg/mL (≈ 80.4 µM) | 250 µg/mL (≈ 643 µM) | 62.5 µg/mL (≈ 161 µM) | 15.6 µg/mL (≈ 40.2 µM) | 31.2 µg/mL (≈ 80.4 µM) | 250 µg/mL (≈ 643 µM) | 31.2 µg/mL (≈ 80.4 µM) | c1ccc(-c2csc(N3N=C(c4cccs4)CC3c3ccncc3)n2)cc1 (stereo not given)
6 | 125 µg/mL (≈ 311 µM) | 250 µg/mL (≈ 621 µM) | 125 µg/mL (≈ 311 µM) | 125 µg/mL (≈ 311 µM) | 125 µg/mL (≈ 311 µM) | 250 µg/mL (≈ 621 µM) | 250 µg/mL (≈ 621 µM) | 250 µg/mL (≈ 621 µM) | Cc1ccc(-c2csc(N3N=C(c4cccs4)CC3c3cccnc3)n2)cc1 (stereo not given)
7 | 62.5 µg/mL (≈ 149 µM) | 250 µg/mL (≈ 597 µM) | 62.5 µg/mL (≈ 149 µM) | 125 µg/mL (≈ 299 µM) | 125 µg/mL (≈ 299 µM) | 250 µg/mL (≈ 597 µM) | 125 µg/mL (≈ 299 µM) | 62.5 µg/mL (≈ 149 µM) | COc1ccc(-c2csc(N3N=C(c4cccs4)CC3c3ccccn3)n2)cc1 (stereo not given)
8 | 250 µg/mL (≈ 643 µM) | 250 µg/mL (≈ 643 µM) | 250 µg/mL (≈ 643 µM) | 250 µg/mL (≈ 643 µM) | 125 µg/mL (≈ 322 µM) | 250 µg/mL (≈ 643 µM) | 250 µg/mL (≈ 643 µM) | 250 µg/mL (≈ 643 µM) | c1ccc(-c2csc(N3N=C(c4cccs4)CC3c3cccnc3)n2)cc1 (stereo not given)
9 | 125 µg/mL (≈ 296 µM) | 62.5 µg/mL (≈ 148 µM) | 62.5 µg/mL (≈ 148 µM) | 62.5 µg/mL (≈ 148 µM) | 62.5 µg/mL (≈ 148 µM) | 62.5 µg/mL (≈ 148 µM) | 125 µg/mL (≈ 296 µM) | 62.5 µg/mL (≈ 148 µM) | Clc1ccc(-c2csc(N3N=C(c4cccs4)CC3c3ccncc3)n2)cc1 (stereo not given)
10 | 125 µg/mL (≈ 296 µM) | 250 µg/mL (≈ 591 µM) | 125 µg/mL (≈ 296 µM) | 250 µg/mL (≈ 591 µM) | 250 µg/mL (≈ 591 µM) | 250 µg/mL (≈ 591 µM) | 125 µg/mL (≈ 296 µM) | 125 µg/mL (≈ 296 µM) | Clc1ccc(-c2csc(N3N=C(c4cccs4)CC3c3ccccn3)n2)cc1 (stereo not given)
11 | 125 µg/mL (≈ 299 µM) | 250 µg/mL (≈ 597 µM) | 125 µg/mL (≈ 299 µM) | 125 µg/mL (≈ 299 µM) | 250 µg/mL (≈ 597 µM) | 250 µg/mL (≈ 597 µM) | 250 µg/mL (≈ 597 µM) | 125 µg/mL (≈ 299 µM) | COc1ccc(-c2csc(N3N=C(c4cccs4)CC3c3cccnc3)n2)cc1 (stereo not given)
12 | 125 µg/mL (≈ 288 µM) | 500 µg/mL (≈ 1150 µM) | 125 µg/mL (≈ 288 µM) | 250 µg/mL (≈ 577 µM) | 250 µg/mL (≈ 577 µM) | 500 µg/mL (≈ 1150 µM) | 125 µg/mL (≈ 288 µM) | 125 µg/mL (≈ 288 µM) | O=[N+]([O-])c1ccc(-c2csc(N3N=C(c4cccs4)CC3c3ccccn3)n2)cc1 (stereo not given)
13 | 62.5 µg/mL (≈ 149 µM) | 250 µg/mL (≈ 597 µM) | 62.5 µg/mL (≈ 149 µM) | 125 µg/mL (≈ 299 µM) | 125 µg/mL (≈ 299 µM) | 62.5 µg/mL (≈ 149 µM) | 125 µg/mL (≈ 299 µM) | 125 µg/mL (≈ 299 µM) | COc1ccc(-c2csc(N3N=C(c4cccs4)CC3c3ccncc3)n2)cc1 (stereo not given)
14 | 250 µg/mL (≈ 591 µM) | 125 µg/mL (≈ 296 µM) | 250 µg/mL (≈ 591 µM) | 250 µg/mL (≈ 591 µM) | 250 µg/mL (≈ 591 µM) | 125 µg/mL (≈ 296 µM) | 250 µg/mL (≈ 591 µM) | 250 µg/mL (≈ 591 µM) | Clc1ccc(-c2csc(N3N=C(c4cccs4)CC3c3cccnc3)n2)cc1 (stereo not given)
15 | 62.5 µg/mL (≈ 155 µM) | 250 µg/mL (≈ 621 µM) | 62.5 µg/mL (≈ 155 µM) | 125 µg/mL (≈ 311 µM) | 250 µg/mL (≈ 621 µM) | 250 µg/mL (≈ 621 µM) | 125 µg/mL (≈ 311 µM) | 62.5 µg/mL (≈ 155 µM) | Cc1ccc(-c2csc(N3N=C(c4cccs4)CC3c3ccccn3)n2)cc1 (stereo not given)
